Source: PMC6006475 (2016)

Columns and labels:
[1] = system: h-TELO-(D) (DNA, G4) GGGTTAGGGTTAGGGTTAGGG; experiment: 1H NMR titration (imino region); settings: 25 mM Tris-HCl, pH 7.4, 298 K, 100 µM DNA
[2] = system: h-TELO-(A) (DNA, G4) GGGTTAGGGTTAGGGTTAGGG; experiment: FRET melting; settings: 0.4 µM BTC, SD ±5%
[3] = system: c-MYC-(A) (DNA, G4) TGAGGGTGGGTAGGGTGGGTAA; experiment: FRET melting; settings: 0.2 µM BTC, SD ±5%
[4] = system: ds DNA (DNA, hairpin, HEG (hexaethylene glycol) linker between 10 and 11) TATAGCTATATATAGCTATA; experiment: FRET melting; settings: 1 µM BTC, highest tested
[5] = system: c-MYC-(D) (DNA, G4) TGAGGGTGGGTAGGGTGGGTAA; experiment: 1H NMR titration (imino region); settings: 25 mM Tris-HCl, pH 7.4, 298 K, 100 µM DNA, binds minor conformation
[6] = K+ (50 mM potassium cacodylate), pH 7.4, pre-annealed
[7] = none (K+-free, MQ water), pH ~7

binding ([1]; K+ (100 mM KCl), weak shift perturbations): yes
binding ([1]; none (K+-free), partial folding promoted): yes
ΔTm [2, 6]: 38.7 °C
ΔTm [2, 7]: 38.5 °C
ΔTm [3, 6]: 24.0 °C
ΔTm [3, 7]: 23.5 °C
ΔTm ([4]; K+ (50 mM potassium cacodylate), pH 7.4): 3 °C
ΔTm [4, 7]: 2.9 °C
binding ([5]; K+ (100 mM KCl)): yes
binding ([5]; none (K+-free)): yes
SMILES: CN(C)CCCNC(=O)c1ccc(-n2cc(-c3ccc4[nH]c5ccc(-c6cn(-c7ccc(C(=O)NCCCN(C)C)cc7)nn6)cc5c4c3)nn2)cc1
